Here are results for 25 compounds from patent US8440652B2, “MST1 kinase inhibitors and methods of their use” (Lexicon Pharmaceuticals, Inc., priority 2011, dated 2013).

This assay addresses T1, MST1 (Homo sapiens, UniProt Q13043).
T1 sequence (Q13043 1-487): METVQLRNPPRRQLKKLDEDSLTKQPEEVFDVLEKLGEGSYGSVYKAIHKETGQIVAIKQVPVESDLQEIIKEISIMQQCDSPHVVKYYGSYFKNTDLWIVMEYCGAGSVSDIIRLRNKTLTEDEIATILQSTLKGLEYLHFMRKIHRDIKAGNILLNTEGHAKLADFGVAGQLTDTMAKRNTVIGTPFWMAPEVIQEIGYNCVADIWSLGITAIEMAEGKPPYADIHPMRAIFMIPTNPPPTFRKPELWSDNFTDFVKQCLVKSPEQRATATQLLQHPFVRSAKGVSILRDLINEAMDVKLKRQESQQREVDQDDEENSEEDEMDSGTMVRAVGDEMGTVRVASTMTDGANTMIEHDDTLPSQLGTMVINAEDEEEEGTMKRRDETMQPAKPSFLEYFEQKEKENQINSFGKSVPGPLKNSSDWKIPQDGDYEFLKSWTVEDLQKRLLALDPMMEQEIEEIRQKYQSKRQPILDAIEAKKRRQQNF
Briefly: In vitro measurement of MST1 inhibition (Z′-Lyte kinase assay). It is filed as biochemical. Here is the method:
Assays were performed in low-volume 384-well black proxiplates (Perkin Elmer, PE-Blk-Proxi-6008269). Eight compounds were first diluted into LDV (Echo) plates using a Multiprobe, at a starting concentration of 1 mM compound in 100% DMSO. Using the ECHO, 75 nl compound was pinged into 384-well proxiplates. The starting concentration of compound in each assay plate is 7.5 uM, followed by 3-fold dilutions, to give quadruplicate ten-point concentration curves. A 3× solution of MST1 enzyme in kinase buffer (Invitrogen, PR4940C) was added to wells containing compound or DMSO controls, followed by a 10 minute preincubation step. Reactions were initiated by adding 5 μL of a mixture of ATP and Z′-Lyte S/T Pep 7 (Invitrogen, PV3180) and proceeded at RT for 1 hour. […] At the end of the kinase reaction, 10 ul of developing solution (Invitrogen, catalog #PR4876B; development buffer A diluted […] in development buffer B) was added to each well and incubated at RT for 1 hr. All wells were read on a Tecan at 400 nm excitation and 460 nm/530 nm emission. Plus and minus enzyme controls were used to calculate percent inhibition and IC50 curves were generated using Excel.

Setting [1] is: 1 μM ATP, read-out: IC50 (μM) 1 μM ATP.
[2] abbreviates: 50 μM ATP, read-out: IC50 (μM) 50 μM ATP.

Where two headings read alike, the source gives them in different places.

For `CN(C1CCC1)S(=O)(=O)c1ccc(-c2cnc(N)c(-c3ccc4c(c3)CCNC4=O)n2)cc1` [4-(5-amino-6-(1-oxo-1,2,3,4-tetrahydroisoquinolin-6-yl)pyrazin-2-yl)-N-cyclobutyl-N-methylbenzenesulfonamide], the IC50 by setting is: under setting [1], below 0.01 µM; under setting [2], below 0.01 µM.

`CN(C1CC1)S(=O)(=O)c1ccc(-c2cnc(N)c(-c3ccc4c(c3)CCNC4=O)n2)cc1F` [4-(5-amino-6-(1-oxo-1,2,3,4-tetrahydroisoquinolin-6-yl)pyrazin-2-yl)-N-cyclopropyl-2-fluoro-N-methylbenzenesulfonamide]: the 50% inhibitory concentration (IC50) under setting [1] was below 0.01 µM and the 50% inhibitory concentration (IC50) under setting [2] was below 0.01 µM.

`CCN(C1CC1)S(=O)(=O)c1ccc(-c2cnc(N)c(-c3ccc4c(c3)CCNC4=O)n2)cc1` [4-(5-amino-6-(1-oxo-1,2,3,4-tetrahydroisoquinolin-6-yl)pyrazin-2-yl)-N-cyclopropyl-N-ethylbenzenesulfonamide]: the IC50 runs as follows: under setting [1], below 0.05 µM; under setting [2], below 0.01 µM.

Take `[2H]C([2H])([2H])N(C1CC1)S(=O)(=O)c1ccc(-c2cnc(N)c(-c3ccc4c(c3)CCNC4=O)n2)cc1` [4-(5-amino-6-(1-oxo-1,2,3,4-tetrahydroisoquinolin-6-yl)pyrazin-2-yl)-N-cyclopropyl-N-trideuteromethylbenzenesulfonamide]: the half-maximal inhibitory concentration (IC50) runs as follows: under setting [1], below 0.01 µM; under setting [2], below 0.01 µM.

On to `Nc1ncc(-c2ccc(S(=O)(=O)NC3CC3)cc2)nc1-c1ccc2c(c1)CCNC2=O` [4-(5-amino-6-(1-oxo-1,2,3,4-tetrahydroisoquinolin-6-yl)pyrazin-2-yl)-N-cyclopropylbenzenesulfonamide], for which the IC50 runs as follows: under setting [1], below 0.01 µM; under setting [2], below 0.01 µM.

In the case of `CCN(C)S(=O)(=O)c1ccc(-c2cnc(N)c(-c3ccc4c(c3)CCNC4=O)n2)cc1C` [4-(5-amino-6-(1-oxo-1,2,3,4-tetrahydroisoquinolin-6-yl)pyrazin-2-yl)-N-ethyl-N,2-dimethylbenzenesulfonamide], the half-maximal inhibitory concentration (IC50) is below 0.01 µM under setting [1] and below 0.01 µM under setting [2].

Take `CCN(C)S(=O)(=O)c1ccc(-c2cnc(N)c(-c3ccc4c(c3)CCNC4=O)n2)cc1` [4-(5-amino-6-(1-oxo-1,2,3,4-tetrahydroisoquinolin-6-yl)pyrazin-2-yl)-N-ethyl-N-methylbenzenesulfonamide]: the IC50 is below 0.01 µM under setting [1] and below 0.01 µM under setting [2].

On to `CCNS(=O)(=O)c1ccc(-c2cnc(N)c(-c3ccc4c(c3)CCNC4=O)n2)cc1` [4-(5-amino-6-(1-oxo-1,2,3,4-tetrahydroisoquinolin-6-yl)pyrazin-2-yl)-N-ethylbenzenesulfonamide], for which the concentration for half-maximal inhibition (IC50) under setting [1] is below 0.01 µM and the IC50 under setting [2] is below 0.01 µM.

In the case of `C[C@@H]1C[C@H]1N(C)S(=O)(=O)c1ccc(-c2cnc(N)c(-c3ccc4c(c3)CCNC4=O)n2)cc1` [4-(5-amino-6-(1-oxo-1,2,3,4-tetrahydroisoquinolin-6-yl)pyrazin-2-yl)-N-methyl-N-((1R,2R)-2-methylcyclopropyl)benzenesulfonamide], the 50% inhibitory concentration (IC50) was below 0.01 µM under setting [1] and below 0.01 µM under setting [2].

On to `CCCN(C)S(=O)(=O)c1ccc(-c2cnc(N)c(-c3ccc4c(c3)CCNC4=O)n2)cc1` [4-(5-amino-6-(1-oxo-1,2,3,4-tetrahydroisoquinolin-6-yl)pyrazin-2-yl)-N-methyl-N-propylbenzenesulfonamide], for which the IC50 by setting is: under setting [1], below 0.01 µM; under setting [2], below 0.01 µM.

Turning to `N#Cc1ccc(-c2cnc(N)c(-c3ccc4c(c3)CCNC4=O)n2)cc1` [4-(5-amino-6-(1-oxo-1,2,3,4-tetrahydroisoquinolin-6-yl)pyrazin-2-yl)benzonitrile], the 50% inhibitory concentration (IC50) runs as follows: under setting [1], below 0.05 µM; under setting [2], below 0.01 µM.

As to `CN(C1CC1)S(=O)(=O)c1ccc(-c2cnc(N)c(-c3ccc4c(=O)[nH]ccc4c3)n2)cc1` [4-(5-amino-6-(1-oxo-1,2-dihydroisoquinolin-6-yl)pyrazin-2-yl)-N-cyclopropyl-N-methylbenzenesulfonamide], the IC50 runs as follows: under setting [1], below 0.01 µM; under setting [2], below 0.01 µM.

For the compound `CN(C1CC1)S(=O)(=O)c1ccc(-c2cnc(N)c(-c3ccc4c(c3)CCCNC4=O)n2)cc1` [4-(5-amino-6-(1-oxo-2,3,4,5-tetrahydro-1H-benzo[c]azepin-7-yl)pyrazin-2-yl)-N-cyclopropyl-N-methylbenzenesulfonamide], the IC50 under setting [1] is below 0.01 µM and the IC50 under setting [2] was below 0.01 µM.

With `CCN(C)S(=O)(=O)c1ccc(-c2cnc(N)c(-c3ccc4c(c3)CCCNC4=O)n2)cc1` [4-(5-amino-6-(1-oxo-2,3,4,5-tetrahydro-1H-benzo[c]azepin-7-yl)pyrazin-2-yl)-N-ethyl-N-methylbenzenesulfonamide], the half-inhibitory concentration (IC50) under setting [1] was below 0.05 µM and the IC50 under setting [2] was below 0.01 µM.

`Cc1cc(-c2cnc(N)c(-c3ccc4c(c3)C3(CC3)CNC4=O)n2)ccc1S(=O)(=O)NC1CC1` [4-(5-amino-6-(1′-oxo-2′,3′-dihydro-1′H-spiro[cyclopropane-1,4′-isoquinolin]-6′-yl)pyrazin-2-yl)-N-cyclopropyl-2-methylbenzenesulfonamide]: the IC50 reads like this: under setting [1], below 0.01 µM; under setting [2], below 0.01 µM.

`CN(C1CC1)S(=O)(=O)c1ccc(-c2cnc(N)c(-c3ccc4c(c3)C3(CC3)CNC4=O)n2)cc1` [4-(5-amino-6-(1′-oxo-2′,3′-dihydro-1′H-spiro[cyclopropane-1,4′-isoquinolin]-6′-yl)pyrazin-2-yl)-N-cyclopropyl-N-methylbenzenesulfonamide]: the concentration for half-maximal inhibition (IC50) is, setting by setting: under setting [1], below 0.01 µM; under setting [2], below 0.01 µM.

Regarding `Nc1ncc(-c2ccc(S(=O)(=O)NC3CC3)cc2)nc1-c1ccc2c(c1)C1(CC1)CNC2=O` [4-(5-amino-6-(1′-oxo-2′,3′-dihydro-1′H-spiro[cyclopropane-1,4′-isoquinolin]-6′-yl)pyrazin-2-yl)-N-cyclopropylbenzenesulfonamide], the half-inhibitory concentration (IC50) under setting [1] is below 0.01 µM and the half-maximal inhibitory concentration (IC50) under setting [2] was below 0.01 µM.

As to `N#Cc1ccc(-c2cnc(N)c(-c3ccc4c(c3)C3(CC3)CNC4=O)n2)cc1` [4-(5-amino-6-(1′-oxo-2′,3′-dihydro-1′H-spiro[cyclopropane-1,4′-isoquinolin]-6′-yl)pyrazin-2-yl)benzonitrile], the concentration for half-maximal inhibition (IC50) reads like this: under setting [1], below 0.05 µM; under setting [2], below 0.01 µM.

Take `CN1CCc2cc(-c3nc(-c4ccc(S(=O)(=O)N(C)C5CC5)cc4)cnc3N)ccc2C1=O` [4-(5-amino-6-(2-methyl-1-oxo-1,2,3,4-tetrahydroisoquinolin-6-yl)pyrazin-2-yl)-N-cyclopropyl-N-methylbenzenesulfonamide]: the half-inhibitory concentration (IC50) reads like this: under setting [1], below 0.15 µM; under setting [2], below 0.05 µM.

`CC1(C)NC(=O)c2ccc(-c3nc(-c4ccc(S(=O)(=O)NC5CC5)cc4)cnc3N)cc21` [4-(5-amino-6-(3,3-dimethyl-1-oxoisoindolin-5-yl)pyrazin-2-yl)-N-cyclopropylbenzenesulfonamide]: the IC50 under setting [1] was below 0.05 µM and the IC50 under setting [2] is below 0.01 µM.

Take `CN1Cc2cc(-c3nc(-c4ccc(S(=O)(=O)N(C)C5CC5)cc4)cnc3N)ccc2C(=O)N1` [4-(5-amino-6-(3-methyl-1-oxo-1,2,3,4-tetrahydrophthalazin-6-yl)pyrazin-2-yl)-N-cyclopropyl-N-methylbenzenesulfonamide]: the IC50 is, setting by setting: under setting [1], below 0.05 µM; under setting [2], below 0.01 µM.

In the case of `CC1CNc2cc(-c3nc(-c4ccc(S(=O)(=O)N(C)C5CC5)cc4)cnc3N)ccc2C(=O)N1` (centres unmarked) [4-(5-amino-6-(3-methyl-5-oxo-2,3,4,5-tetrahydro-1H-benzo[e][1,4]diazepin-8-yl)pyrazin-2-yl)-N-cyclopropyl-N-methylbenzenesulfonamide], the IC50 runs as follows: under setting [1], below 0.01 µM; under setting [2], below 0.01 µM.

`Nc1ncc(-c2ccc(S(=O)(=O)NC3CC3)cc2)nc1-c1ccc2c(c1)C1(CC1)NC2=O` [4-(5-amino-6-(3′-oxospiro[cyclopropane-1,1′-isoindolin]-6′-yl)pyrazin-2-yl)-N-cyclopropylbenzenesulfonamide]: the IC50 under setting [1] is below 0.05 µM and the concentration for half-maximal inhibition (IC50) under setting [2] was below 0.01 µM.

With `[2H]C1([2H])CNC(=O)c2ccc(-c3nc(-c4ccc(S(=O)(=O)N(C)C5CC5)cc4)cnc3N)cc21` [4-(5-amino-6-(4,4-dideutero-1-oxo-1,2,3,4-tetrahydroisoquinolin-6-yl)pyrazin-2-yl)-N-cyclopropyl-N-methylbenzenesulfonamide], the 50% inhibitory concentration (IC50) by setting is: under setting [1], below 0.01 µM; under setting [2], below 0.01 µM.

As to `[2H]C1([2H])CNC(=O)c2ccc(-c3nc(-c4ccc(S(=O)(=O)N(C5CC5)C([2H])([2H])[2H])cc4)cnc3N)cc21` [4-(5-amino-6-(4,4-dideutero-1-oxo-1,2,3,4-tetrahydroisoquinolin-6-yl)pyrazin-2-yl)-N-cyclopropyl-N-trideuteromethyl-benzenesulfonamide], the half-maximal inhibitory concentration (IC50) runs as follows: under setting [1], below 0.01 µM; under setting [2], below 0.01 µM.
